Values of other authors, collected in patent publication US20010004459A1, “Composition with sustained release of active principle, capable of forming a microemulsion” (priority 1998, published 2001).

Conditions: acidic pH (dissolution curve at pH 1.2, FIG. 2)

## COc1ccc2c(c1)c(CC(=O)O)c(C)n2C(=O)c1ccc(Cl)cc1 [indomethacin, Indomethacin]
  solubility at acidic pH: insoluble
